In the supplement of paper PMC10307832:

Tests used:
Assay in all cases: relative viability (nuclei count vs DMSO), 5 days (fraction); higher = more cells survive
R406 + Vorinostat = compound: COc1cc(Nc2ncc(F)c(Nc3ccc4c(n3)NC(=O)C(C)(C)O4)n2)cc(OC)c1OC [R406] + O=C(CCCCCCC(=O)Nc1ccccc1)NO [Vorinostat] (partner 1 µM)
In short: (§1)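 Lung cancer cell lines in 1536-well plates were dosed by pin tool the day after seeding, either with one drug alone or with a fixed anchor-drug dose plus five library-drug doses (not always all listed) in √10 steps. After 5 days, cells were fixed and their nuclei stained in one step (final 0.05% Triton X-100, 1% formaldehyde, 1 ug/ml Hoechst), then counted on 4× images. Relative viability is the nuclei count in treated wells divided by that in vehicle wells. Values are medians of duplicate plates.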

R406 + Decitabine = compound: COc1cc(Nc2ncc(F)c(Nc3ccc4c(n3)NC(=O)C(C)(C)O4)n2)cc(OC)c1OC [R406] + Nc1ncn([C@H]2C[C@H](O)[C@@H](CO)O2)c(=O)n1 [Decitabine] (partner 2 µM)
In short: as §1

Daporinad + Lapatinib = compound: O=C(/C=C/c1cccnc1)NCCCCC1CCN(C(=O)c2ccccc2)CC1 [Daporinad] + CS(=O)(=O)CCNCc1ccc(-c2ccc3ncnc(Nc4ccc(OCc5cccc(F)c5)c(Cl)c4)c3c2)o1 [Lapatinib] (partner 2 µM)
In short: as §1

Daporinad + Alpelisib = compound: O=C(/C=C/c1cccnc1)NCCCCC1CCN(C(=O)c2ccccc2)CC1 [Daporinad] + Cc1nc(NC(=O)N2CCC[C@H]2C(N)=O)sc1-c1ccnc(C(C)(C)C(F)(F)F)c1 [Alpelisib] (partner 2 µM)
In short: as §1

| Cell Line | relative viability (R406 + Vorinostat; first compound 0.08 µM) | relative viability (R406 + Vorinostat; first compound 0.253 µM) | relative viability (R406 + Vorinostat; first compound 0.8 µM) | relative viability (R406 + Vorinostat; first compound 2.53 µM) | relative viability (R406 + Vorinostat; first compound 8 µM) | relative viability (R406 + Decitabine; first compound 0.08 µM) | relative viability (R406 + Decitabine; first compound 0.253 µM) | relative viability (R406 + Decitabine; first compound 0.8 µM) | relative viability (R406 + Decitabine; first compound 2.53 µM) | relative viability (R406 + Decitabine; first compound 8 µM) | relative viability (Daporinad + Lapatinib; first compound 0.0005 µM) | relative viability (Daporinad + Lapatinib; first compound 0.001581 µM) | relative viability (Daporinad + Lapatinib; first compound 0.005 µM) | relative viability (Daporinad + Lapatinib; first compound 0.01581 µM) | relative viability (Daporinad + Alpelisib; first compound 0.0005 µM) | relative viability (Daporinad + Alpelisib; first compound 0.001581 µM) | relative viability (Daporinad + Alpelisib; first compound 0.005 µM) | relative viability (Daporinad + Alpelisib; first compound 0.01581 µM) |
| --- | --- | --- | --- | --- | --- | --- | --- | --- | --- | --- | --- | --- | --- | --- | --- | --- | --- | --- |
| HCC-827 | 0.791 | 0.853 | 0.892 | 0.788 | 0.817 | 0.323 | 0.412 | 0.401 | 0.219 | 0.268 | 0.454 | 0.19 | 0.212 | 0.191 | 1.04 | 1.03 | 1.06 | 0.969 |
| HOP-62 | 0.66 | 0.803 | 0.836 | 0.464 | 0.463 | 0.26 | 0.229 | 0.22 | 0.221 | 0.438 |  | 1.13 | 1.04 | 0.505 |  | 1.3 | 1.11 | 0.481 |
| IA-LM | 0.984 | 0.756 | 1.04 | 0.99 | 1.05 |  |  |  |  |  | 1.02 | 0.771 | 0.664 | 0.876 | 0.865 | 0.983 | 0.967 | 0.58 |
| LC-2-ad | 0.677 | 0.748 | 0.744 | 0.336 | 0.201 | 0.775 | 0.776 | 0.797 | 0.533 | 0.401 | 0.959 | 1.03 | 0.936 | 0.972 | 0.858 | 0.983 | 0.938 | 0.837 |
| LCLC-97TM1 | 0.732 | 0.908 | 1.38 | 0.569 | 0.468 | 0.259 | 0.27 | 0.247 | 0.19 | 0.274 | 0.813 | 0.795 | 1.2 | 0.797 | 0.295 | 0.268 | 0.248 | 0.257 |
| LCLC-103H | 0.729 | 0.764 | 0.834 | 0.779 | 0.566 | 0.707 | 0.712 | 0.744 | 0.746 | 0.707 |  |  |  |  | 1.01 | 1.01 | 1.02 | 1.06 |
| LK-2 | 0.205 | 0.404 | 0.293 | 0.291 | 0.237 | 0.227 | 0.469 | 0.379 | 0.23 | 0.21 | 0.877 | 0.967 | 0.546 | 0.324 | 0.995 | 1.24 | 0.719 | 0.549 |
| LOU-NH91 | 0.926 | 0.993 | 0.914 | 0.53 | 0.498 | 0.797 | 0.792 | 0.779 | 0.644 | 0.558 | 0.767 | 0.788 | 0.932 | 0.952 | 0.719 | 0.795 | 0.851 | 0.997 |
| LU99A | 0.519 | 0.484 | 0.553 | 0.361 | 0.312 | 0.972 | 0.87 | 0.888 | 0.61 | 0.591 | 0.839 | 1.14 | 0.98 | 1.17 | 0.492 | 0.602 | 0.584 | 0.574 |
| LXF-289 | 0.632 | 0.772 | 0.787 | 0.654 | 0.616 | 0.386 | 0.372 | 0.406 | 0.405 | 0.396 | 0.847 | 0.989 | 0.91 | 0.95 | 0.977 | 1.09 | 1.04 | 1.15 |
| NCI-H23 | 0.605 | 0.635 | 0.734 | 0.155 | 0.216 | 0.258 | 0.307 | 0.314 | 0.308 | 0.177 | 1.17 | 0.987 | 0.94 | 0.41 | 0.69 | 0.776 | 0.782 | 0.416 |
| NCI-H322M | 0.816 | 0.873 | 0.864 | 0.633 | 0.468 | 0.665 | 0.669 | 0.704 | 0.594 | 0.557 | 0.648 | 0.671 | 0.584 | 0.597 | 0.757 | 0.945 | 0.85 | 0.769 |
| NCI-H441 | 0.669 | 0.754 | 0.76 | 0.905 | 0.699 | 0.231 | 0.248 | 0.276 | 0.217 | 0.24 |  |  |  |  |  | 0.603 | 0.754 | 0.717 |
| NCI-H522 | 0.937 | 1.04 | 1.01 | 0.838 | 0.812 | 0.726 | 0.688 | 0.762 | 0.587 | 0.616 |  |  |  |  |  |  |  |  |
| NCI-H1299 |  |  |  |  |  |  |  |  |  |  | 0.956 | 0.954 | 0.955 | 1.05 | 1.15 | 1.06 | 1.04 | 1.1 |
| NCI-H1563 |  |  |  |  |  |  |  |  |  |  | 1.1 | 1.07 | 0.844 | 0.862 | 0.956 | 0.923 | 0.723 | 0.914 |
| NCI-H1648 | 0.457 | 0.427 | 0.562 | 0.468 | 0.643 | 0.53 | 0.527 | 0.483 | 0.515 | 0.36 |  |  |  |  |  |  |  |  |
| NCI-H1650 | 0.635 | 0.634 | 0.664 | 0.396 | 0.389 | 0.475 | 0.407 | 0.359 | 0.413 | 0.411 | 0.792 | 0.922 | 0.95 | 0.875 |  |  |  |  |
| NCI-H1703 |  |  |  |  |  |  |  |  |  |  | 1.39 | 1.22 | 0.845 | 0.402 | 0.412 | 0.379 | 0.466 | 0.312 |
| NCI-H1792 |  |  |  |  |  | 0.558 | 0.727 | 0.59 | 0.515 | 0.352 | 0.837 | 0.987 | 0.838 | 0.932 | 0.715 | 0.761 | 0.339 | 0.752 |
| NCI-H2228 | 0.693 | 0.64 | 0.786 | 0.281 | 0.175 |  |  |  |  |  | 1.14 | 1.75 | 1.52 | 1.12 | 0.744 | 0.87 | 0.702 | 0.898 |
| NCI-H2342 | 0.694 | 0.84 | 0.699 | 0.752 | 0.74 | 0.681 | 0.768 | 0.759 | 0.668 | 0.691 |  |  |  |  |  |  |  |  |
| SW 900 | 0.475 | 0.844 | 0.577 | 0.134 | 0.15 | 0.486 | 0.469 | 0.446 | 0.555 | 0.173 |  |  |  |  |  |  |  |  |
